Measured values: PMC8041433 (Environmental Health Perspectives, 2021)
Values joined by “and” are separate entries in the source; they are usually repeats but may differ in a detail not shown here. Equal values may be shown once. Where a name gives a salt, the structure may show the parent alone. Read-outs that look alike come from different tables or passages of the source.

Columns and labels:
recombinant human AChE [1] = molecular target: T1, recombinant human AChE (Homo sapiens, UniProt P22303); experiment: biochemical
recombinant human AChE [2] = molecular target: T1, recombinant human AChE; experiment: biochemical; remark: listed apart in the source
AChE in SH-SY5Y cells = AChE in SH-SY5Y cells (Homo sapiens, UniProt P22303); experiment: cell-based
[3] = molecular target: AChE in SH-SY5Y spheroids (Homo sapiens, UniProt P22303); experiment: cell-based; conditions: potency (IC50)
[4] = molecular target: AChE in neural stem cells (Homo sapiens, UniProt P22303); experiment: cell-based
[5] = molecular target: AChE in neural stem cell spheroids (Homo sapiens, UniProt P22303); experiment: cell-based; conditions: for IC50: potency (IC50)
recombinant human AChE [6] = molecular target: T1, recombinant human AChE; experiment: biochemical; assay type: biochemical; conditions: for AC50: AC50 (uM)
recombinant human AChE [7] = molecular target: T1, recombinant human AChE
recombinant human AChE [8] = molecular target: T1, recombinant human AChE; experiment: biochemical; remark: listed apart in the source
[9] = potency (IC50), SH-SY5Y cells monolayer
[10] = Neural stem cell spheroid (24 h)
[11] = Neural stem cell spheroid (48 h)
[12] = potency (IC50), Enzyme with microsomes
Throughout, for IR or R: key: Reversible (R); Irreversible (IR); ND, not detected in enzyme-based AChE inhibition assay from current study.

T1 sequence (P22303 32-614): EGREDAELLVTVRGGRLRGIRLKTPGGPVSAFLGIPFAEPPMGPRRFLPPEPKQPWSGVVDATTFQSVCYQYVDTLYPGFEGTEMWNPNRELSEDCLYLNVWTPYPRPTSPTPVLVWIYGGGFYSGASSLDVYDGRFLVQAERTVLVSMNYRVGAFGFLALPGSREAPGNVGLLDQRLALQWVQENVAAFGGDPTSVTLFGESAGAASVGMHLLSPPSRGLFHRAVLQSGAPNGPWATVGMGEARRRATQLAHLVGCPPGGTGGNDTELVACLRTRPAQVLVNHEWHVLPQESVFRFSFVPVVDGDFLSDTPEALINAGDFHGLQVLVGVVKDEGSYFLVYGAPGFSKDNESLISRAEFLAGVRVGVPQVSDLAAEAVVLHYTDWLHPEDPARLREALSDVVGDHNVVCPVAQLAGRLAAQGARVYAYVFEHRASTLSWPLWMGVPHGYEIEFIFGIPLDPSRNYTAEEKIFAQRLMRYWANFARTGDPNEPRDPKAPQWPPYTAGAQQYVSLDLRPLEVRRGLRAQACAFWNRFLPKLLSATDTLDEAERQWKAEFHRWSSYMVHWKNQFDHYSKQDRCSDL
Sequence of AChE in neural stem cell spheroids (P22303 32-614): as above
Sequence of AChE in SH-SY5Y cells (P22303 32-614): as above
Sequence of AChE in neural stem cells (P22303 32-614): as above
Sequence of AChE in SH-SY5Y spheroids (P22303 32-614): as above

Row | Structure (SMILES) | CC-v2 (curve classes) (recombinant human AChE [1]) | Efficacy (recombinant human AChE [1]) | IC50 (recombinant human AChE [1]; potency (IC50), Enzyme) [µM] | IC50 (recombinant human AChE [2]) [µM] | CC-v2 (curve classes) (AChE in SH-SY5Y cells) | IC50 (AChE in SH-SY5Y cells; IC50 (uM)) | IC50 (AChE in SH-SY5Y cells; [9]) [µM] | IC50 ([3]; SH-SY5Y spheroids (24 h)) [µM] | IC50 ([3]; SH-SY5Y spheroids (48 h)) [µM] | IC50 [4] [µM] | IC50 [5, 10] [µM] | IC50 [5, 11] [µM] | IR or R (recombinant human AChE [6]) | AC50 (recombinant human AChE [6]; activity_5) | AC50 (recombinant human AChE [6]; activity_10) | AC50 (recombinant human AChE [6]; activity_60) | CC-v2 (curve classes) (recombinant human AChE [7]) | Efficacy (recombinant human AChE [7]) | IC50 (recombinant human AChE [8]; [12]) [µM] | AC50 (recombinant human AChE [6]) | also measured
1 | CNC(=O)Oc1cc(C)cc(C(C)C)c1 [Promecarb] | -1.1 | -99.272 | 0.48 ± 0.12 | 0.61 ± 0.08 | -1.1 | 0.633 µM and 0.564 µM | 0.88 ± 0.1 | 1.38 ± 1.23 | 0.68 ± 0.09 | 1.35 ± 0.18 | 0.93 ± 0.07 | 0.66 | R | 1.98 µM and 1.25 µM | 0.885 µM and 1.77 µM | 0.703 µM and 0.498 µM and 1.11 µM | -1.1 | -98.92 | 0.68 ± 0.11 | – | –
2 | CNC(=O)Oc1ccccc1OC(C)C [Propoxur] | -1.1 | – | 1.55 ± 0.43 | 1.91 ± 0.12 | -1.1 | 2.24 µM and 2 µM (2×) and 1.59 µM and 1.78 µM | 3.05 ± 0.52 | 3.55 ± 2.59 | 2.45 ± 0.61 | 17 ± 1.1 | 20.1 ± 4.2 | 35.8 | R | 22.2 µM and 14 µM and 6.27 µM | 4.98 µM and 14 µM and 7.03 µM | 1.77 µM and 1.11 µM and 2.5 µM | -1.1 | – | 1.76 | – | –
3 | CCOC(=O)c1cn2nc(OP(=S)(OCC)OCC)cc2nc1C [Pyrazophos] | -3 | -45.459 | 49.8 | 85.3 ± 5.56 | -2.1 | 35.6 µM and 71 µM and 79.6 µM | 46.2 | 29.7 | 46.2 | 16.4 | 2.46 | 4.46 | – | – | – | 55.9 µM and 62.7 µM | -1.1 | -98.116 | 7.89 | – | –
4 | O=C(c1ccc(OCCN2CCCCC2)cc1)c1c(-c2ccc(O)cc2)sc2cc(O)ccc12 [Raloxifene hydrochloride, reference compound] | -1.1 | – | 2.14 ± 0.13 | 3.43 ± 0.58 | -1.1 and -2.1 | 27.5 µM and 25.2 µM and 31.7 µM | 4.29 ± 0.59 | 1.03 ± 0.78 | 4.19 ± 0.94 | 14.1 ± 1.61 | 6.29 ± 0.72 | 9.85 | R | 1.57 µM and 2.22 µM and 1.11 µM | 1.57 µM and 1.4 µM and 3.14 µM | 1.25 µM and 1.11 µM and 2.22 µM | -1.1 | – | 3.42 ± 0.58 | – | –
5 | C=CC[N+]1([C@H]2C[C@H]3[C@@H]4CC[C@H]5C[C@H](OC(C)=O)[C@@H](N6CCCCC6)C[C@]5(C)[C@H]4CC[C@]3(C)[C@H]2OC(=O)CC)CCCCC1 [Rapacuronium bromide, reference compound] | -2.2 | -53.371 | 22.6 | 26.3 ± 1.71 | -2.1 | 27.5 µM and 30.9 µM and 34.7 µM | 16 | 8.24 | 22.6 | 5.27 | 3.64 | 1.37 | R | 21.7 µM and 19.3 µM | 13.7 µM and 21.7 µM and 19.3 µM | 21.7 µM and 38.5 µM and 19.3 µM | 4 | 0 | 26.3 | – | IC50 (recombinant human AChE [1]; IC50 (uM)): 30.9 µM
6 | CC/N=c1\cc2oc3cc(NCC)c(C)cc3c(-c3ccccc3C(=O)OCC)c-2cc1C [Rhodamine 6G] | -1.1 | – | 22.8 | 41.2 ± 2.79 | -1.1 | 8.94 µM and 6.31 µM and 7.1 µM and 7.07 µM and 7.96 µM and 8.91 µM | 12.4 | 15.8 | 9.25 | 30.5 | 29.7 | 40.3 | R | 39.5 µM and 35.2 µM and 28 µM | 39.5 µM and 49.8 µM and 35.2 µM | 25 µM and 35.2 µM | -2.2 and -2.1 | – | 41.3 | – | –
7 | CCN1CCC2(CC1)COc1cc3c(cc12)N(C(=O)c1ccc(-c2ccc(-c4nnc(C)o4)cc2C)cc1)CC3.Cl [SB236057A] | -2.1 | -86.107 | 38.3 ± 6.89 | 67.8 ± 8.64 | -2.1 | 29.3 µM and 23.2 µM | 33.8 ± 2.29 | 27.8 ± 11.7 | 25.9 ± 2.98 | 42.6 ± 2.88 | – | 4.03 | R | 72.8 µM and 64.9 µM and 45.9 µM | 51.5 µM and 91.6 µM | 64.9 µM and 51.5 µM and 72.8 µM | 4 | 0 | 66 ± 15.1 | – | IC50 (recombinant human AChE [1]; IC50 (uM)): 32.8 µM; potency (IC50), Neural stem cell spheroid (24 h) [5]: Inactive
8 | Cc1nc2n(c(=O)c1CCN1CCC(C(=O)c3ccc(F)cc3)CC1)CCS2 [Setoperone, reference compound] | -2.2 | -57.619 | 14.2 ± 0.96 | 20.1 ± 1.36 | -2.1 | 13.8 µM and 12.3 µM and 15.5 µM | 16 ± 1.08 | 2.66 ± 1.88 | 13.7 ± 1.58 | 8.35 ± 1.14 | – | – | R | 4.32 µM and 6.11 µM and 7.69 µM | 4.85 µM and 7.69 µM and 10.9 µM | 6.11 µM and 6.85 µM | 4 | 0 | 18.6 ± 1.21 | – | IC50 (recombinant human AChE [1]; IC50 (uM)): 30.9 µM; potency (IC50), Neural stem cell spheroid (24 h) [5]: Inactive
9 | CCOC(=O)c1ccc(NC(=O)CN2CCCCC2)cc1 [Sulcaine, reference compound] | -2.2 | -40.558 | 20.1 | 23.4 ± 1.53 | -2.1 | 30.9 µM and 27.5 µM and 15.5 µM | 15.3 | 12.9 | 20.9 | 19.6 | 15.6 | 13.7 | R | 24.3 µM and 27.3 µM | 24.3 µM and 27.3 µM | 21.7 µM and 27.3 µM | 4 | 0 | 23.4 | – | IC50 (recombinant human AChE [1]; IC50 (uM)): 30.9 µM
10 | CCOP(=S)(OCC)OP(=S)(OCC)OCC [Sulfotepp] | -2.1 | – | 9.97 ± 1.14 | 44.4 | -1.1 | 5.02 µM and 8.18 µM and 2.52 µM and 5.16 µM and 2.24 µM and 2.59 µM | 0.96 ± 0.13 | 15.3 ± 7.82 | 4.12 ± 0.28 | 1.25 ± 0.14 | 0.06 ± 0.01 | 0.1 ± 0.02 | – | – | – | 55.9 µM and 70.3 µM | -1.1 | – | 7.89 | – | –
11 | CCOP(=S)(Oc1cnc(C(C)(C)C)nc1)OC(C)C (centres unmarked) [Tebupirimfos] | -2.1 | -96.664 | 46.2 | 42.8 ± 2.79 | -2.1 | 39.9 µM and 35.6 µM | 20.1 | 28.2 | 24.2 | 9.97 | 2.08 | 3.7 | – | – | – | – | -1.1 | -95.03 | 4.29 | 70.3 µM and 55.9 µM and 49.8 µM | IC50 (recombinant human AChE [1]; read-out: IC50): 63.3 µM; IC50 (recombinant human AChE [8]; IC50 (uM)): 10 µM
12 | CS/C(C)=N\OC(=O)N(C)SN(C)C(=O)O/N=C(\C)SC [Thiodicarb] | -1.1 | -104.676 | 7.03 | 3.97 ± 0.46 | -1.1 | 1.42 µM and 1.26 µM and 1.12 µM | 2.81 ± 0.32 | 1.58 ± 0.57 | 2.62 ± 0.47 | 5.43 ± 0.92 | 7.63 ± 1.05 | 7.8 ± 2.18 | – | – | – | – | -2.1 | -115.189 | 5.48 ± 1.36 | 4.44 µM and 3.95 µM (2×) and 3.14 µM and 6.27 µM and 5.59 µM and 1.57 µM and 1.98 µM | –
13 | CNC(=O)ON=C(CSC)C(C)(C)C [Thiofanox] | -1.1 | -92.082 | 1.91 ± 0.26 | 3.18 ± 0.59 | -1.1 | 1.59 µM and 1.78 µM | 3.04 ± 0.41 | 6.89 ± 6.18 | 3.46 ± 0.86 | 4.83 ± 0.82 | 2.83 ± 0.59 | 3.64 | – | – | – | – | -1.1 | -91.728 | 2.59 ± 0.17 | 2.8 µM and 4.44 µM and 4.98 µM and 3.95 µM and 2.22 µM and 1.4 µM and 1.98 µM | –
14 | CCN(CC)CCOc1ccc2c(c1)C(=O)c1cc(OCCN(CC)CC)ccc1-2 [Tilorone, reference compound] | -1.1 | -92.014 | 4.18 | 5.52 ± 1.16 | -1.1 | 0.977 µM and 1.1 µM and 0.776 µM | 1.77 | 1.34 | 1.42 | 5.88 | 19.6 | 25.7 | R | – | – | – | -1.1 | -84.739 | 5.46 | 6.85 µM (2×) and 6.11 µM (2×) and 4.85 µM and 7.69 µM and 9.68 µM | reversibility of AChE inhibition (result in words) (recombinant human AChE [6]): reversible
15 | CCCCSP(=O)(SCCCC)SCCCC [Tribufos] | -2.2 and 4 | – | 35.3 | 25.1 ± 2.88 | -2.2 and -1.2 | 28.3 µM and 31 µM and 17.8 µM and 27.6 µM and 15.9 µM and 34.8 µM | 15.3 | 12.2 | 12 | 39.8 | 31.4 | 14 | – | – | – | – | -1.1 | – | 3.66 | 88.5 µM | IC50 (recombinant human AChE [1]; read-out: IC50): 35.6 µM; IC50 (recombinant human AChE [8]; IC50 (uM)): 5.02 µM and 5.51 µM
